Experimental data reported in patent publication US20170354650A1, “QUINOLINE DERIVATIVES FOR INHIBITING HISTONE METHYLTRANSFERASES AND USE THEREOF” (KOREA INSTITUTE OF SCIENCE AND TECHNOLOGY, priority 2016, published 2017).

What was measured:
ESET/SETDB1 = experiment: Screening with Tet-inducible ESET/SETDB1 cell line (dot blot analysis, FIG. 1); format: cell-based; details: among 107 selected library compounds
Method: In order to find compounds that inhibit the ESET/SETDB1 enzyme, 107 compounds expected to inhibit the activity of ESET/SETDB1 were selected through structural modeling from a compound library. These compounds were screened using a Tet-inducible ESET cell line.
Tet-Inducible ESET (H3K9 Specific Histone Methyltransferase) Cell Line (Tetracycline-Inducible ESET Cells):
A Tet-inducible ESET cell line was prepared using the T-REx™ system available from Invitrogen. The myc-ESET gene was subcloned into pcDNA5/TO and transfected into somatic mother cells (STHdh^Q7/7, striatal cells) using pcDNA6/TR.
Confocal Microscopy for Determination of H3K9me3 (Confocal Microscopy for Identification of Change in Heterochromatin Condensation by H3K9Me3 and Drug)
An indirect fluorescence labeling method using fluorescein-conjugated secondary antibodies was used. After fixing ESET inducible cells with 4% PFA and incubating with H3K9me3 (rabbit antibody; dilution, 1:200; Millipore) primary antibodies, the cells were incubated with fluorescence-conjugated secondary antibodies (Alexa 594; dilution, 1:400; Thermo). Images were obtained using a confocal microscope (IX2-DSU, Olympus, Tokyo, Japan).
Among those compounds, #7 compound was a quinolone derivative, which is selected as a hit-compound through the instant experiment. The #7 compound in FIG. 1 is Compound 8 in the present invention.

ESET/SETDB1 enzyme = target: T1, ESET/SETDB1 enzyme (Homo sapiens, UniProt Q15047); experiment: SETDB1 chemiluminescence enzyme assay (BPS Bioscience kit); format: biochemical; details: test compound 1-100 μM, FIG. 2
T1 construct: purchased BPS Bioscience
Method: In order to investigate the inhibitory effect against the activity of the ESET/SETDB1 enzyme of the compounds according to the present disclosure, SETDB1 chemiluminescence assay was conducted for the compound 8. The SETDB1 assay was performed using the SetDB1 chemiluminescent assay kit (BPS Bioscience) according to the manufacturer's protocol. S-Adenosylmethionine (SAM, stock concentration 20 μM) was used as a […]. First, SAM and the test compounds were prepared to final concentrations of 1 μM, 3 μM, 10 μM, 30 μM and 100 μM by diluting with DMSO (final volume 1 μL). 150 μL of a TBST buffer (1X TBS, pH 8.0, containing 0.05% Tween-20) was added to each well of a 96-well plate and hydrated at room temperature for 15 minutes. A master mix containing an assay buffer, the compound 8 and the SETDB1 enzyme was prepared.
25 μL (7.5 μL 4×HMT buffer+2.5 μL 20 μM SAM+15 μL H2O) of the prepared master mix was added to each well of the plate. Then, 1 μL of the test compound (1 μM, 3 μM, 10 μM, 30 μM or 100 μM) and 20 μL of the diluted SetDB1 enzyme were added sequentially. […] Chemiluminescence resulting from the reaction between the HRP-conjugated secondary antibody and the added HRP substrate was measured using a chemiluminescence reader (Molecular Devices microplate reader) and the result was analyzed using the SoftMax Pro software.

transgenic YAC128 mouse = experiment: Rotarod performance test in YAC128 animal model; format: in vivo; details: 15-month-old male YAC128 mice, 0.636 mg/kg for 3 weeks, 5 days a week, 5 rpm, compared to the vehicle, FIG. 3
Method: The effect of the compound according to the present disclosure on motor ability was evaluated using the transgenic YAC128 mouse which expresses the human Huntingtin gene containing 128 CAG repeat sequences as a model of Huntington's disease (HD) (Menalled L et al., 2009, Neurobiol Dis 35(3):319-36). The Huntington's disease model mouse is reported to show decline in motor ability, which is the typical pathological symptom of Huntington's disease, from 6 around months after birth, progress of neurodegeneration from 9 months and aggregation of mutant Huntington's genes in striatal neurons from around 18 months.
Rotarod performance test was conducted using 15-month-old male YAC128 mice. The drug was administered (0.636 mg/kg) for 3 weeks, 5 days a week, and the rotarod test was performed on the 5th day of each week.
The mouse was placed on a rotating rod (4 cm in diameter) and riding time was measured. The experiment was performed 4 times on the same day and 60 seconds was given to each mouse. The rotarod rotation speed was set to 5 rpm. The period of time until the mouse fell to the ground was measured. When the mouse remained longer than 60 seconds on the rod, the riding time was recorded as 60 seconds. The recorded time was statistically analyzed and was used as an indicator of the motor ability and balance of the mouse.

[1] = system: trimethylation of H3K9 (H3K9me3); experiment: Change in H3K9 trimethylation in brain of YAC128 mouse; format: in vivo; details: striatal brain tissue of YAC128 mouse, anti-H3K9me3 blot, FIGS. 4A and 4B
Method: After adding the striatal brain tissue of YAC128 mouse to 1 mL of PBS containing 0.4 mM sodium butyrate, 5% Triton X-100, 3 mM DTT, 1 mM sodium orthovanadate, 5 mM sodium fluoride, 3 mM PMSF, 0.5 mg/mL leupeptin and 10 mg/mL aprotinin, a cell homogenate was obtained using a Downce crusher. After centrifugation at 3000 rpm for 10 minutes, the supernatant was removed. The precipitating cell pellet was washed twice with a 5% Triton buffer and histone was extracted with 0.2 M HCl. After neutralizing the histone-containing solution to neutral pH with 1 N NaOH, proteins were quantitated and separated by 15% SDS-PAGE. The change in trimethylation of H3K9 (H3K9me3) was investigated using anti-H3K9me3 (rabbit antibody; dilution, 1:1000; Millipore).

| SMILES | inhibitory effect against ESET/SETDB1 (ESET/SETDB1) | trimethylation of H3K9 (H3K9me3) (ESET/SETDB1 enzyme) | riding time on the rod (transgenic YAC128 mouse) | intensity of trimethylated H3K9 [1] |
| --- | --- | --- | --- | --- |
| C=CCOc1cccc2nc(Nc3ccccc3)ccc12 [Compound 11, 5-allyloxy-N-phenylquinolin-2-amine] | significant inhibitory effect | – | – | – |
| C=CCNc1cccc2nc(N3CCCCC3)ccc12 [Compound 4, 2-(piperidin-1-yl)-N-allylquinolin-5-amine] | significant inhibitory effect | – | – | – |
| C=CCOc1cccc2nc(N3CCCC3)ccc12 [Compound 8, 5-allyloxy-2-(pyrrolidin-1-yl)quinoline] | significant inhibitory effect | remarkably decreased | remarkably increased | remarkably decreased |
